In PubChem BioAssay AID248 (DTP/NCI, 2004):
Values joined by “and” are separate entries in the source; they are usually repeats but may differ in a detail not shown here. Equal entries are not always repeated. Toxic doses and inconclusive results are not listed. Rule as the data show it: active = T/C of 150% or more; inactive = T/C below 125%.

System: L1210 leukemia ip in BDF1 mice, survival T/C
Assay: NCI In Vivo Anticancer Drug Screen. Data for tumor model L1210 Leukemia (intraperitoneal) in B6D2F1 (BDF1) mice
Settings: endpoint: mean survival time, higher = longer survival
In short: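 Ratio derived from survival: compound-dosed mice over vehicle-dosed mice, all bearing a transplantable tumor.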

[1] = dose: 100.0 mg/kg/injection, schedule: Q01DX001 (ip), vehicle: saline
[2] = dose: 100.0 mg/kg/injection, schedule: Q01DX009 (ip), vehicle: acetone
[3] = dose: 200.0 mg/kg/injection, schedule: Q01DX001 (ip), vehicle: saline
[4] = dose: 200.0 mg/kg/injection, schedule: Q01DX009 (ip), vehicle: acetone
[5] = dose: 400.0 mg/kg/injection, schedule: Q01DX001 (ip), vehicle: saline
[6] = dose: 400.0 mg/kg/injection, schedule: Q01DX009 (ip), vehicle: acetone
[7] = dose: 100.0 mg/kg/injection, schedule: Q01DX009 (ip), vehicle: Klucel (hydroxypropylcellulose) (HPC)
[8] = dose: 100.0 mg/kg/injection, schedule: Q04DX003 (ip), vehicle: Klucel (hydroxypropylcellulose) (HPC)
[9] = dose: 200.0 mg/kg/injection, schedule: Q01DX009 (ip), vehicle: Klucel (hydroxypropylcellulose) (HPC)
[10] = dose: 200.0 mg/kg/injection, schedule: Q04DX003 (ip), vehicle: Klucel (hydroxypropylcellulose) (HPC)
[11] = dose: 400.0 mg/kg/injection, schedule: Q01DX009 (ip), vehicle: Klucel (hydroxypropylcellulose) (HPC)
[12] = dose: 400.0 mg/kg/injection, schedule: Q04DX003 (ip), vehicle: Klucel (hydroxypropylcellulose) (HPC)
[13] = dose: 75.0 mg/kg/injection, schedule: Q01DX001 (ip), vehicle: saline
[14] = dose: 150.0 mg/kg/injection, schedule: Q01DX001 (ip), vehicle: saline
[15] = dose: 300.0 mg/kg/injection, schedule: Q01DX001 (ip), vehicle: saline
[16] = dose: 100.0 mg/kg/injection, schedule: Q01DX001 (ip), vehicle: carboxymethylcellulose (CMC)
[17] = dose: 200.0 mg/kg/injection, schedule: Q01DX001 (ip), vehicle: carboxymethylcellulose (CMC)
[18] = dose: 400.0 mg/kg/injection, schedule: Q01DX001 (ip), vehicle: carboxymethylcellulose (CMC)

Measured: T/C

O=C1c2ccccc2C(=O)C1c1nc2ccccc2cc1O
inactive: dose: 12.5 mg/kg/injection, schedule: Q01DX009 (ip), vehicle: saline with Tween-80 94 % of control | dose: 12.5 mg/kg/injection, schedule: Q04DX002 (ip), vehicle: saline with Tween-80 96 % of control | dose: 25.0 mg/kg/injection, schedule: Q01DX009 (ip), vehicle: saline with Tween-80 96 % of control and 102 % of control | dose: 25.0 mg/kg/injection, schedule: Q04DX002 (ip), vehicle: saline with Tween-80 104 % of control | dose: 50.0 mg/kg/injection, schedule: Q01DX009 (ip), vehicle: saline with Tween-80 102 % of control | dose: 50.0 mg/kg/injection, schedule: Q04DX002 (ip), vehicle: saline with Tween-80 89 % of control | dose: 115.0 mg/kg/injection, schedule: Q01DX009 (ip), vehicle: saline with Tween-80 93 % of control | dose: 170.0 mg/kg/injection, schedule: Q01DX009 (ip), vehicle: saline with Tween-80 100 % of control

NC(=O)n1cncn1
inactive: [1] 90 % of control | [2] 89 % of control | [3] 107 % of control | [4] 100 % of control | [5] 100 % of control | [6] 91 % of control

CC1C(=O)OC2C1CCC1(C)C=CC(=O)C3(C)OC213 (stereo not given)
inactive: dose: 100.0 mg/kg/injection, schedule: Q01DX001 (ip), vehicle: Klucel (hydroxypropylcellulose) (HPC) 97 % of control | dose: 200.0 mg/kg/injection, schedule: Q01DX001 (ip), vehicle: Klucel (hydroxypropylcellulose) (HPC) 94 % of control | dose: 400.0 mg/kg/injection, schedule: Q01DX001 (ip), vehicle: Klucel (hydroxypropylcellulose) (HPC) 96 % of control

Cc1cccc(NS(=O)(=O)c2ccc(Cl)cc2)c1C
inactive: [7] 109 % of control | [8] 96 % of control | [9] 105 % of control | [10] 94 % of control | [11] 94 % of control | [12] 103 % of control

Nc1ccccc1CC(C(=O)O)c1ccc2c(c1)OCO2 (stereo not given)
inactive: [13] 105 % of control | dose: 75.0 mg/kg/injection, schedule: Q01DX009 (ip), vehicle: acetone 108 % of control | [14] 94 % of control | dose: 150.0 mg/kg/injection, schedule: Q01DX009 (ip), vehicle: acetone 103 % of control | [15] 89 % of control | dose: 300.0 mg/kg/injection, schedule: Q01DX009 (ip), vehicle: acetone 103 % of control

COc1cc2c(cc1OC)C1Cc3cc(OC)c(OC)cc3C(C2)N1
inactive: [13] 97 % of control | [14] 97 % of control | [15] 97 % of control

O=C(O)/C=C(\Cl)c1ccccc1
inactive: dose: 50.0 mg/kg/injection, schedule: Q01DX001 (ip), vehicle: saline 112 % of control | [1] 112 % of control | [3] 104 % of control | [5] 106 % of control

O=C(COc1ccc(Cl)cc1)Nc1ccccc1F
inactive: [7] 88 % of control | [8] 95 % of control | [9] 89 % of control | [10] 88 % of control | [11] 91 % of control | [12] 90 % of control

CC(C)(C)NC/C(=C\c1ccccc1)S(=O)(=O)c1ccccc1[N+](=O)[O-]
inactive: dose: 50.0 mg/kg/injection, schedule: Q01DX001 (ip), vehicle: saline with Tween-80 91 % of control | dose: 100.0 mg/kg/injection, schedule: Q01DX001 (ip), vehicle: saline with Tween-80 93 % of control | dose: 200.0 mg/kg/injection, schedule: Q01DX001 (ip), vehicle: saline with Tween-80 95 % of control

Nc1cc2c(cc1N)C(=O)c1ccccc1C2=O
inactive: dose: 100.0 mg/kg/injection, schedule: Q01DX001 (ip), vehicle: acetone 95 % of control | [8] 101 % of control | dose: 200.0 mg/kg/injection, schedule: Q01DX001 (ip), vehicle: acetone 98 % of control | [10] 94 % of control | dose: 400.0 mg/kg/injection, schedule: Q01DX001 (ip), vehicle: acetone 102 % of control | [12] 90 % of control

Nc1c(Br)cc([N+](=O)[O-])cc1Br
inactive: [8] 111 % of control | [10] 95 % of control | [12] 105 % of control

C=C1C[C@]23C[C@@]1(O)CC[C@H]2[C@@]12C=C[C@H](O)[C@@](C)(C(=O)O1)[C@H]2[C@@H]3C(=O)O
inactive: [16] 94 % of control | [1] 104 % of control | [2] 97 % of control | [17] 96 % of control | [3] 104 % of control | [4] 94 % of control | [18] 94 % of control | [5] 104 % of control | [6] 95 % of control | dose: 800.0 mg/kg/injection, schedule: Q01DX009 (ip), vehicle: acetone 92 % of control

O=C(OC1COC(n2c(=O)oc3cc(Br)c(Cl)cc32)C(OC(=O)c2ccccc2)C1OC(=O)c1ccccc1)c1ccccc1 (stereo not given)
inactive: [16] 96 % of control | [17] 96 % of control | [18] 89 % of control

C=CCN(CC=C)c1ncnc2[nH]ncc12
inactive: dose: 7.0 mg/kg/injection, schedule: Q01DX015 (ip), vehicle: carboxymethylcellulose (CMC) 91 % of control | dose: 16.0 mg/kg/injection, schedule: Q01DX015 (ip), vehicle: carboxymethylcellulose (CMC) 97 % of control | dose: 32.0 mg/kg/injection, schedule: Q01DX015 (ip), vehicle: carboxymethylcellulose (CMC) 93 % of control | dose: 62.0 mg/kg/injection, schedule: Q01DX015 (ip), vehicle: carboxymethylcellulose (CMC) 106 % of control | [1] 109 % of control | dose: 125.0 mg/kg/injection, schedule: Q01DX015 (ip), vehicle: carboxymethylcellulose (CMC) 89 % of control | [3] 101 % of control | [5] 93 % of control

CC(O)/C(=N/Nc1ccc([N+](=O)[O-])cc1[N+](=O)[O-])C(=O)O (stereo not given)
inactive: dose: 50.0 mg/kg/injection, schedule: Q01DX009 (ip), vehicle: Klucel (hydroxypropylcellulose) (HPC) 106 % of control | [7] 96 % of control | [8] 91 % of control | [9] 96 % of control | [10] 88 % of control

COc1ccc(C(CC(=O)O)c2cc(OC)c(OC)c(OC)c2)cc1OC (stereo not given)
inactive: [16] 92 % of control | [17] 93 % of control | [18] 93 % of control

CCCCCCCCCCCCCCCC(=O)N(CCC)CCC
inactive: [16] 98 % of control | dose: 100.0 mg/kg/injection, schedule: Q01DX009 (ip), vehicle: carboxymethylcellulose (CMC) 105 % of control and 90 % of control | dose: 100.0 mg/kg/injection, schedule: Q04DX002 (ip), vehicle: carboxymethylcellulose (CMC) 102 % of control | dose: 100.0 mg/kg/injection, schedule: Q04DX003 (ip), vehicle: carboxymethylcellulose (CMC) 102 % of control | [17] 99 % of control | dose: 200.0 mg/kg/injection, schedule: Q01DX009 (ip), vehicle: carboxymethylcellulose (CMC) 100 % of control and 101 % of control | dose: 200.0 mg/kg/injection, schedule: Q04DX002 (ip), vehicle: carboxymethylcellulose (CMC) 94 % of control | dose: 200.0 mg/kg/injection, schedule: Q04DX003 (ip), vehicle: carboxymethylcellulose (CMC) 104 % of control | [18] 99 % of control | dose: 400.0 mg/kg/injection, schedule: Q04DX002 (ip), vehicle: carboxymethylcellulose (CMC) 96 % of control | dose: 400.0 mg/kg/injection, schedule: Q04DX003 (ip), vehicle: carboxymethylcellulose (CMC) 104 % of control

CSC(N(C)c1ccccc1)=[N+](C)c1ccccc1
inactive: [1] 105 % of control
